# Entries after “also recorded” stand apart in the source; their conditions may differ.
# Legend:
# Caco-2 cell permeability = format: in vitro ADME; settings: human, Caco-2 monolayer
# Experimental: forskolin (Sigma 17018) was added and incubated for 5 min at 37 °C with gentle stirring (150 rpm). Reagents (#CISBIO 62AM4PEC) were added and, after incubation for 60 min at rt with gentle stirring (90 rpm) and protected from light, homogeneous time resolved fluorescence (HTRF, λEx: 320 nm; λEm: 620-665 nm) from each well was measured using a Tecan Infinite M1000 Pro. Data were normalized to the maximum effect of dopamine. EC50 and Ema x values were obtained after fitting the d ata to a four -parameter logistic equatio n using Prism V2. 1 (Graph Pad Inc, Chicago, USA) .
# Cell permeability. The Caco-2 cell permeability of compound 30 was determined by the Uppsala university optimization and pharmaceutical profiling platform (UDOPP) as described previously26. Briefly, Caco-2 cell monolayers (passage 94-105) were grown on a permeable filter support and used on day 21 after seeding. Prior to the experiment a 10 µM solution of 30 was prepared by dilution of a 10 mM stock solution in DMSO with Hank’ s balanced salt solution (HBSS; 7.4) and warmed to 37 ° C. The Caco-2 filters were washed with pre-warmed HBSS prior to the experiment, and the solution of 30 was thereafter applied on the apical or basolateral side of the monolayer. Permeability was determined at 37 ° C and at pH 7.4 in both the apical and basolateral chamber, with a stirring rate of 500 rpm. […]
# [1] = system: unilaterally 6-OHDA lesioned rats; experiment: Rotation test in unilaterally 6-OHDA lesioned rats (model of Parkinsonism); format: in vivo
# Experimental: Evaluation of compound 30 in rodent model of Parkinsonism. Male Sprague Dawley rats (150-200 g) were housed in air-conditioned rooms (12h dark/light cycle) at 20°C and a humidity of 53%. Experiments were performed in agreement with the European Communities Council Directive of 24 November 1986 (86/609/EEC) on the ethical use of animals and were approved by the local ethical committee (Stockholm North Ethical Committee, N105/16). Rats were anesthetized with ketamine (100 mg/kg, IP; Intervet)/xylazine (5 mg/kg, IP; Bayer, Kiel, Germany), pretreated with desipramine (25 mg/kg, IP; Sigma, St Louis, MO, USA)/pargyline (5 mg/kg, IP; Sigma), placed in a stereotaxi c instrument and injected with 6-OHDA (2.5 µl of a 5mg/ml solution; Sigma) into the median forebrain bundle (MFB) of the right hemisphere (AP -2.8 mm, ML -2.0 mm and V -9.0 mm). Two weeks after the unilateral 6-OHDA lesion, rats were injected with apomorphine (1 mg/kg, IP; Sigma) and their contralateral rotations were measured to determine the degree of nigrostriatal denervation. Four weeks after surgery, rats that were divided into two group according to the number of apomorphine-induced rotations. The rats were treated either with DMSO(17%)/saline (n=6) or compound 30 (n=7, 24 mg/kg, IP) dissolved in DMSO(17%)/saline. The number of rotations was calculated automatically with Noldus EthoVision XT11. 5 Software for 30 min following the drug administration. The two […]
# groups were then compared by using a Mann-Whitney test. A second set of independent experiments using a new set of rats were carried out using the same protocol to assess the involvement of the D2R in the observed effect. In this case, rats were divided into four groups according to the number of apomorphine-induced rotations. The rats were treated with either DMSO(17%)/saline (n=6), raclopride (n=7, 2mg/kg, IP) dissolved in DMSO(17%)/saline, compound 30 (n=7, 24 mg/kg, IP) dissolved in DMSO(17%)/saline or the combination of raclopride (30 min pretreatment) and compound 30 (n=7). The rotation test was then performed for 30 min. […]
smiles,measurement,setting,value
CCCN(CCCCC(=O)Nc1nc2c(OC)ccc(OC)c2s1)C1Cc2ccccc2C1 [Compound 30],"Papp A→B at 60 min, 10 µM","Caco-2 cell permeability; 10 µM, pH 7.4, 37 °C, apical to basolateral",3.8 ×10⁻⁶ cm/s
same,"efflux ratio at 60 min, 10 µM","Caco-2 cell permeability; pH 7.4, read-out: efflux ratio (ER)",8
same,"contralateral rotations (net rotations, 30 min) versus control group","[1]; 24 mg kg^−1 IP, 6-OHDA lesioned rats, p<0.01 first set, p<0.05 independent second set",significantly higher number of contralateral rotations; also recorded: significant increase of contralateral rotations
same,effect on contralateral rotations in combination with D2 antagonist raclopride,[1]; 30 at 24 mg kg^−1 IP with raclopride 2 mg kg^−1 IP (30 min pretreatment),reversed
